Measured values published in patent US20100266503A1, “Breast Cancer Methods, Medicaments and Agents” (priority 2007, published 2010).

Tests used:
[1] = system: notch intracellular domain in MCF-7 cells; assay: Staining for notch intracellular domain expression (surrogate marker for GS activity); format: cell-based; conditions: 48 hours; Gefitinib 15 μM, U0126 10 μM, PD98059 10 μM
From the text: (§1) (A) GS activity as measured by a fluorescent assay in MCF7 breast cancer cell lines and MCF10A normal cell lines, with and without treatment with the ERK1/2 inhibitor U0126. (B) Sections of MCF7 breast cancer cell lines stained for notch intracellular domain expression (as a surrogate marker for GS activity). Shown are sections of cells untreated (NO), and cells treated with oestrogen (E2), faslodex (FAS), Gefitinib (Gef), GSI1, and the ERK1/2 inhibitors U0126 (U) and. PD98059 (PD). (C) Sections of MCF10A normal cell lines stained for notch intracellular domain expression. Shown are sections of cells untreated (NO), and cells treated with Gefitinib (Gef) and PD98059 (PD).
(§2) Cancer and normal cell lines were treated with oestrogen (E2), faslodex (FAS), Gefitinib (Gef 15 μM), GSI1, and the ERK1/2 inhibitors U0126 (U) (10 μM) and PD98059 (PD) (10 μM) for 48 hours and a fluorescent assay performed to measure GS activity. The figures show relative fluorescence therefore the amount of fluorescence in the treated cells relative to the untreated minus background (these figures are corrected for background).

[2] = system: GS Activity in MDA-MB 231 cell line; conditions: 48 h vs vehicle control
Procedure: GS Activity Assay was performed on MDA-MB 231 cell line. Cells were treated with a vehicle control and a U0126 inhibitor for 48 h.

[3] = system: GS activity in MCF7 breast cancer cell lines
From the text: as §1, §2

[4] = system: GS activity in MCF10A normal cell lines; conditions: 10 μM, 48 hours
From the text: as §1, §2

| SMILES | notch intracellular domain expression localized to the nucleus compared to untreated cells [1] | GS Activity [2] | increase in GS activity (relative fluorescence vs untreated) ([3]; 10 μM, 48 hours) | increase in GS activity ([3]; breast cancer cells, summary statement) [fold] | increase in GS activity (relative fluorescence vs untreated) [4] |
| --- | --- | --- | --- | --- | --- |
| C[C@]12CC[C@@H]3c4ccc(O)cc4C[C@@H](CCCCCCCCC[S+]([O-])CCCC(F)(F)C(F)(F)F)[C@H]3[C@@H]1CC[C@@H]2O (some centres unmarked) [Faslodex] | all but the Faslodex appear to increase notch intracellular domain expression | – | – | – | – |
| COc1cc2ncnc(Nc3ccc(F)c(Cl)c3)c2cc1OCCCN1CCOCC1 [Gefitinib] | appear to increase notch intracellular domain expression localized to the nucleus | – | – | – | – |
| COc1cccc(-c2cc(=O)c3ccccc3o2)c1N [PD98059] | appear to increase notch intracellular domain expression localized to the nucleus | – | – | – | – |
| N#CC(=C(/N)Sc1ccccc1N)/C(C#N)=C(\N)Sc1ccccc1N [U0126] | appear to increase notch intracellular domain expression localized to the nucleus | dose dependant increase of GS Activity | 6-12 fold | 9 | approximately 4 fold |
